The target in one data set is S. aureus SrtA (Staphylococcus aureus, UniProt Q2FV99). Briefly: biochemical.
The next data set relates to S. aureus ATCC 25923. Briefly: Interference with biofilm formation assay (safranin method). The conditions noted are these: 100 µM compound, 24 h at 37 °C; for inhibition at 100 µM: Staphylococcus aureus, ATCC25923, 24 h, read-out: Percentages of Inhibition of Biofilm Formation S. aureus 25923. It is filed as cell-based. As for the experimental part: (§1) The reference strains S. aureus ATCC 29213, S. aureus ATCC 25923, S. aureus ATCC 6538 and S. epidermidis RP62A were used in the assays.
(§2) The staphylococcal strains were tested for their ability to form biofilms. Briefly, bacteria were grown in TSB containing 2% glucose overnight at 37 °C in a shaking bath and then diluted 1:200 to a suspension with optical density (OD) of about 0.040 at 570 nm. Polystyrene 24-well tissue culture plates were filled with 1 mL of diluted suspension and incubated for 24 h at 37 °C. The wells were then washed three times with 1 mL of sterile phosphate-buffered saline (PBS) and stained with 1 mL of safranin 0.1% v/v for 1 min. The excess stain was removed by placing the plates under running tap water. Plates were dried overnight in an inverted position at 37 °C. Safranin-stained adherent bacteria in each well were re-dissolved to homogeneity in 1 mL of 30% v/v glacial acetic acid, and the OD was read at 492 nm. Each assay was performed in triplicate and repeated at least twice.
(§3) The procedure described above was used to evaluate the activity of phenyl-hydrazinylidene-derivatives in the prevention of biofilm formation. Polystyrene 24-well tissue culture plates were filled with 1 mL of diluted bacterial suspension, obtained and diluted as previously described, and a concentration of 100 µM of each compound was directly added to the bacterial suspension at time zero and incubated at 37 °C for 24 h. The wells were then washed and stained with safranin as per the biofilm forming assay. By comparing the average optical density (O.D.) of the growth control wells with the sample wells, the following formula was used to calculate the percentages of inhibition for each concentration of the sample: (2) Inhibition (%)=OD growth control−OD sample/OD growth control×100
(§4) Each assay was performed in triplicate and assays were repeated at least twice.

The next data set has as its system S. aureus ATCC 29213. The data set is described as above. The conditions noted are these: 100 µM compound, 24 h at 37 °C; for inhibition at 100 µM: Staphylococcus aureus, ATCC29213, 24 h, read-out: Percentages of Inhibition of Biofilm Formation S. aureus 29213. It is filed as cell-based. As for the experimental part: as §1, §2, §3, §4
Another data set deals with S. aureus ATCC 6538. The data set is described as above. It is filed as cell-based. The note with it: 100 µM compound, 24 h at 37 °C; for inhibition at 100 µM: Staphylococcus aureus, ATCC6538, 24 h, read-out: Percentages of Inhibition of Biofilm Formation S. aureus 6538. As for the experimental part:
as §1, §2, §3, §4

In a further data set the test system is S. epidermidis RP62A. The description is as above. The data set is classed as cell-based. The note with it: 100 µM compound, 24 h at 37 °C; for inhibition at 100 µM: Staphylococcus epidermidis, RP62A, 24 h, read-out: Percentages of Inhibition of Biofilm Formation S. epidermidis RP62A. As for the experimental part:
as §1, §2, §3, §4

A word on the melting point: it is the temperature, or range, at which the solid turns liquid. By IC50 is commonly meant the midpoint of a concentration-inhibition curve. The term inhibition denotes the relative decrease from the control value, in per cent.

Where two headings read alike, the source gives them in different places.

S. aureus SrtA, sequence (Q2FV99 60-206): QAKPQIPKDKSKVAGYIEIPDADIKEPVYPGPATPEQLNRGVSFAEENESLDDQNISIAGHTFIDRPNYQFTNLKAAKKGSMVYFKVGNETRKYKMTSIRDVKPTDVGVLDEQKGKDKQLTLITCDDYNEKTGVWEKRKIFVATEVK

Turning to `CCOC(=O)/C(=N\Nc1ccc(Cl)c(Cl)c1)C(=O)c1ccccc1`, the melting point lay within 96 to 98 °C.
`COc1ccc2cc3[n+](cc2c1OC)CCc1cc2c(cc1-3)OCO2` [BC, Berberine chloride, reference compound] yielded a concentration for half-maximal inhibition (IC50) on S. aureus SrtA of 120 µM.
As to `CCOC(=O)/C(=N/Nc1ccccc1)C(C)=O` [Compound 1a, Ethyl (2E)-3-Oxo-2-(2-phenylhydrazinylidene)butanoate], the melting point was in the range of 78 to 80 °C. The molecule also returned a concentration for half-maximal inhibition (IC50) on S. aureus SrtA of 192 µM.
In the case of `CCOC(=O)/C(=N/Nc1ccc(Cl)c(Cl)c1)C(C)=O` [Compound 1b, Ethyl (2E)-3-Oxo-2-(2-(3,4-dichlorophenyl)hydrazinylidene)butanoate], the melting point lay within 100 to 102 °C. Further, the concentration for half-maximal inhibition (IC50) against S. aureus SrtA was greater than 500 µM.
The corresponding values for `CCOC(=O)/C(=N/Nc1cccc(Cl)c1)C(C)=O` [Compound 1c, Ethyl (2E)-3-Oxo-2(2-(3-chlorophenyl)hydrazinylidene)butanoate] are 70 to 72 °C and greater than 500 µM.
The matching figures for `CCOC(=O)/C(=N\Nc1ccc([N+](=O)[O-])cc1)C(C)=O` [Compound 1d, Ethyl (2Z)-3-Oxo-2(2-(4-nitrophenyl)hydrazinylidene)butanoate]: 120 to 122 °C and 100 µM.
In turn, `CCOC(=O)/C(=N/Nc1cc(OC)c(OC)c(OC)c1)C(C)=O` [Compound 1e, Ethyl (2E)-3-Oxo-2-(2-(3,4,5-trimethoxyphenyl)hydrazinylidene)butanoate] displayed a melting point of 78 to 80 °C. At S. aureus SrtA, this molecule displayed an IC50 of 110 µM.
The molecule `CCOC(=O)/C(=N/Nc1ccc(C)cc1)C(C)=O` [Compound 1f, Ethyl (2E)-3-Oxo-2-(2-(4-methylphenyl)hydrazinylidene)butanoate] gave a concentration for half-maximal inhibition (IC50) at S. aureus SrtA greater than 500 µM.
Take `CCOC(=O)/C(=N\Nc1ccccc1)C(=O)c1ccccc1` [Compound 1g, Ethyl (2Z)-3-Oxo-3-phenyl-2-(2-phenylhydrazinylidene)propanoate]: the IC50 on S. aureus SrtA (read-out: IC50 (activity as sortase A inhibitors), 10 µM S. aureus sortase A, preincubated 1 h at 37 °C, 50 µM dabcyl-QALPETGEE-edans substrate) is greater than 500 µM.
In turn, `CC(=O)/C(=N/Nc1ccccc1)C(=O)O` [Compound 5a, (2Z)-3-Oxo-2-(2-phenylhydrazinylidene)butanoic acid] showed an IC50 against S. aureus SrtA of 80 µM. Further, the “Percentages of Inhibition of Biofilm Formation S. aureus 25923” value with S. aureus ATCC 25923 (100 µM) was determined as 68.3 ± 2.0%. Further, the inhibition at 100 µM with S. aureus ATCC 25923, in the data set with S. aureus ATCC 29213, in the data set on S. aureus ATCC 6538 and in the data set on S. epidermidis RP62A was roughly 60% each time. Moreover, the “Percentages of Inhibition of Biofilm Formation S. aureus 29213” value with S. aureus ATCC 29213 (100 µM) amounted to 62.3 ± 1.5%. The “Percentages of Inhibition of Biofilm Formation S. aureus 6538” value in the data set on S. aureus ATCC 6538 (100 µM) amounted to 60.1 ± 1.7%. Further, the “Percentages of Inhibition of Biofilm Formation S. epidermidis RP62A” value with S. epidermidis RP62A (100 µM) is on record as 61.5 ± 1.2%.
In turn, `CC(=O)/C(=N/Nc1ccc(Cl)c(Cl)c1)C(=O)O` [Compound 5b, (2Z)-3-Oxo-2-(2-(3,4-dichlorophenyl)hydrazinylidene)butanoic acid] registered an IC50 against S. aureus SrtA of 50 µM. The inhibition at 100 µM in the data set on S. aureus ATCC 25923 was found to be 39.2 ± 1.4%; in the data set with S. aureus ATCC 29213, 71.3 ± 6.4%; in the data set with S. aureus ATCC 6538 it was 22 ± 0.9%; with S. epidermidis RP62A, 29.1 ± 1.4%.
The matching figures for `CC(=O)/C(=N/Nc1cccc(Cl)c1)C(=O)O` [Compound 5c, (2Z)-3-Oxo-2-(2-(3-chlorophenyl)hydrazinylidene)butanoic acid]: 87 µM, 41.1 ± 0.7%, 69 ± 4.6%, 30.3 ± 0.4% and 22.9 ± 1.3%.
The corresponding values for `CC(=O)/C(=N/Nc1ccc([N+](=O)[O-])cc1)C(=O)O` [Compound 5d, (2Z)-3-Oxo-2-(2-(4-nitrophenyl)hydrazinylidene)butanoic acid] are 57 µM, 45.3 ± 1.7%, 73.7 ± 0.8%, 53.6 ± 1.8% and 48.6 ± 1.6%.
The molecule `COc1cc(N/N=C(/C(C)=O)C(=O)O)cc(OC)c1OC` [Compound 5e, (2Z)-3-Oxo-2-(2-(3,4,5-trimethoxyphenyl)hydrazinylidene)butanoic acid] gave a melting point of 150 to 152 °C. Further, at S. aureus SrtA, inhibition was half-maximal at 92 µM (IC50). In the data set on S. aureus ATCC 25923, the inhibition at 100 µM came out at 28.8 ± 2.9%. The inhibition at 100 µM in the data set with S. aureus ATCC 29213 stood at 34.8 ± 1.3%. Further, in the data set with S. aureus ATCC 6538, the inhibition at 100 µM worked out at 48.2 ± 0.9%. In addition, the inhibition at 100 µM in the data set with S. epidermidis RP62A stood at 27.1 ± 1.2%.
`CC(=O)/C(=N/Nc1ccc(C)cc1)C(=O)O` [Compound 5f, (2Z)-3-Oxo-2-(2-(4-methylphenyl)hydrazinylidene)butanoic acid] gave an IC50 on S. aureus SrtA of 100 µM. Besides, the inhibition at 100 µM with S. aureus ATCC 25923 is 33.8 ± 2.7%; with S. aureus ATCC 29213, 40.8 ± 2.1%; with S. aureus ATCC 6538, 40.3 ± 1.9%; in the data set on S. epidermidis RP62A, 24.4 ± 0.9%.
In the case of `O=C(O)/C(=N\Nc1ccccc1)C(=O)c1ccccc1` [Compound 5g, (2Z)-3-Oxo-3-phenyl-2-(2-phenylhydrazinylidene)propanoic acid], the melting point was 136 to 138 °C. The same molecule registered a half-inhibitory concentration (IC50) against S. aureus SrtA of 98 µM. Moreover, the inhibition at 100 µM with S. aureus ATCC 25923 came to 36.8 ± 2.1%. Also, the inhibition at 100 µM in the data set with S. aureus ATCC 29213 stood at 36.9 ± 1.2%. The inhibition at 100 µM in the data set with S. aureus ATCC 6538 was 41.9 ± 1.7%. The inhibition at 100 µM in the data set on S. epidermidis RP62A came out at 23.7 ± 0.7%.
With `O=C(O)/C(=N\Nc1ccc(Cl)c(Cl)c1)C(=O)c1ccccc1` [Compound 5h, (2Z)-3-Oxo-2-(2-(3,4-dichlorophenyl)hydrazinylidene)-3-phenylpropanoic acid], the melting point lay within 202 to 204 °C. For the same molecule, half-maximal inhibition against S. aureus SrtA (IC50) required 100 µM. Besides, in the data set with S. aureus ATCC 25923, the inhibition at 100 µM was 55.9 ± 2.6%. In addition, the inhibition at 100 µM with S. aureus ATCC 29213 is 42.7 ± 3.7%. In addition, in the data set with S. aureus ATCC 6538, the inhibition at 100 µM was 70.1 ± 2.1%. For the same molecule, in the data set on S. epidermidis RP62A, the inhibition at 100 µM stood at 45.4 ± 1.6%.
`CC(=O)/C(C#N)=N/Nc1ccccc1` [Compound 6a, (2E)-3-Oxo-2-(2-phenylhydrazinylidene)butanenitrile]: the IC50 against S. aureus SrtA was 80 µM. Also, the inhibition at 100 µM with S. aureus ATCC 25923 turned out to be 45.1 ± 2.9%; with S. aureus ATCC 29213, 46.2 ± 2.3%; with S. aureus ATCC 6538, 51 ± 0.9%; in the data set with S. epidermidis RP62A, 34.8 ± 1.8%.
Molecule `CC(=O)/C(=N/Nc1ccccc1)C(N)=O` [Compound 7a, (2Z)-3-Oxo-2-(2-phenylhydrazinylidene)butanamide] gave a melting point of 134 to 136 °C. Half-maximal inhibition against S. aureus SrtA (IC50) required 120 µM. The inhibition at 100 µM in the data set with S. aureus ATCC 25923 worked out at 42.1 ± 1.8%. For the same molecule, in the data set on S. aureus ATCC 29213, the inhibition at 100 µM turned out to be 48.2 ± 2.9%. The inhibition at 100 µM in the data set with S. aureus ATCC 6538 is 42.8 ± 1.1%. Moreover, the inhibition at 100 µM with S. epidermidis RP62A was found to be 45.9 ± 2.1%.
`CN(C)CCC(=O)c1ccc(Cl)c(Cl)c1` [DPDAP, 1-(3,4-dichlorophenyl)-3-dimethylamino-1-propanone, reference compound] came in with an IC50 against S. aureus SrtA of 10 µM.
Take `C=CS(=O)(=O)c1ccccc1` [PVS, Phenyl vinyl sulfone, reference compound]: on S. aureus SrtA (10 µM S. aureus sortase A, preincubated 1 h at 37 °C, 50 µM dabcyl-QALPETGEE-edans substrate, read-out: IC50 (activity as sortase A inhibitors)), the half-inhibitory concentration (IC50) is 736 µM.

The record behind these values is article PMC6273394, “Discovery of a New Class of Sortase A Transpeptidase Inhibitors to Tackle Gram-Positive Pathogens: 2-(2-Phenylhydrazinylidene)alkanoic Acids and Related Derivatives” (Molecules, 2016).
